Values quoted from earlier work, collected in patent publication US12076400B2, “Methods of using a bispecific antigen-binding construct targeting HER2 in combination with CDK4/6 inhibitors for the treatment of breast cancer” (c/o Zymeworks BC Inc., priority 2019, dated 2024).

Tested on: estrogen receptor (ER)-positive breast cancer cell lines
Details: by blocking progression from G1 into S phase

CC(=O)c1c(C)c2cnc(Nc3ccc(N4CCNCC4)cn3)nc2n(C2CCCC2)c1=O [palbociclib, Palbociclib]
Cellular proliferation in vitro: reduced cellular proliferation
